Test results: patent publication US11801240B2, “Combination therapies and uses thereof” (Tesaro, Inc., priority 2017, dated 2023)

Tests used:
TNBC PDX model MAXF 857 = assay: Niraparib+bevacizumab and niraparib+cabozantinib combinations in TNBC PDX model MAXF 857; format: in vivo, mouse; details: for Tumor growth inhibition (TGI): MAXF 857, NMRI nude female mice, 5 weeks, bevacizumab 20 mg/kg iv qw, cabozantinib 30 mg/kg po qd, end of treatment
[1] = tested on: A2780 (BRCA wt, HRD−) ovarian cancer cell line-derived xenograft; assay: Niraparib and cabozantinib combination in ovarian cancer cell line-derived xenograft model A2780; format: in vivo, mouse; details: A2780, Balb/C nude female mice, 2 weeks; niraparib 60 mg/kg po qd, cabozantinib 30 mg/kg po qd; end of treatment
ovarian PDX model OVC134 = assay: Niraparib and cabozantinib combination in ovarian PDX model OVC134; format: in vivo, mouse
[2] = tested on: A2780 (BRCA wt, HRD−) ovarian cancer cell line-derived xenograft; assay: Niraparib and bevacizumab combination in ovarian cancer cell line-derived xenograft model A2780; format: in vivo, mouse; details: A2780, CB-17 SCID female mice, 2 weeks; niraparib 60 mg/kg po qd, bevacizumab 10 mg/kg iv qw; end of treatment

Molecule	Tumor growth inhibition (TGI) (TNBC PDX model MAXF 857) [%]	Tumor growth inhibition (TGI) [1] [%]	Tumor growth inhibition (TGI) (ovarian PDX model OVC134; OVC134, Balb/C nude female mice, 7 weeks, cabozantinib 30 mg/kg po qd, end of treatment) [%]	Sensitivity of the model to monotherapy (anti-tumor activity) (TNBC PDX model MAXF 857; TNBC PDX model MAXF 857, 5 weeks)	Tumor growth inhibition (TGI) [2] [%]	Tumor growth inhibition (TGI) (TNBC PDX model MAXF MX1; MAXF MX1, NMRI nude female mice, 5 weeks, niraparib 50 mg/kg po qd, end of treatment) [%]	Sensitivity of the model to monotherapy (anti-tumor activity) (TNBC PDX model MAXF MX1; TNBC PDX model MAXF MX1, 5 weeks)	Sensitivity of the model to monotherapy (anti-tumor activity) (ovarian PDX model OVC134; ovarian PDX model OVC134, 7 weeks)
COc1cc2nccc(Oc3ccc(NC(=O)C4(C(=O)Nc5ccc(F)cc5)CC4)cc3)c2cc1OC [cabozantinib]	65	51	83	–	–	–	–	–
bevacizumab: recombinant humanized monoclonal antibody that can block angiogenesis and inhibit vascular endothelial growth factor A (VEGF-A)	76	–	–	very sensitive	55	–	–	–
NC(=O)c1cccc2cn(-c3ccc([C@@H]4CCCNC4)cc3)nc12 [niraparib, (3S)-3-[4-{7-(aminocarbonyl)-2H-indazol-2-yl}phenyl]piperidine]	–	18	–	–	< 40	99	very sensitive	very sensitive
